In ChEMBL document CHEMBL1151757, “Synthesis, radiosynthesis, and biological evaluation of fluorine-18-labeled 2beta-carbo(fluoroalkoxy)-3beta-(3'-((Z)-2-haloethenyl)phenyl)nortropanes: candidate radioligands for in vivo imaging of the serotonin transporter with positron emission tomography” (J Med Chem, 2008):

How the values were obtained:
[1] = Drug uptake in anesthetized cynomolgus monkey brain occipital lobe after 55 mins postinjection; type: ADME, organism-based, Macaca fascicularis; conditions: in vivo
Midbrain [2] = test: Drug uptake in anesthetized cynomolgus monkey brain midbrain after 65 mins postinjection; type: ADME, organism-based, Macaca fascicularis; design: unit not given here; conditions: in vivo
Thalamus [3] = test: Drug uptake in anesthetized cynomolgus monkey brain thalamus after 105 mins postinjection; type: ADME, organism-based, Macaca fascicularis; design: unit not given here; conditions: in vivo, 1.75 h
Medulla [4] = test: Drug uptake in anesthetized cynomolgus monkey brain medulla after 225 mins postinjection; type: ADME, organism-based, Macaca fascicularis; conditions: in vivo, 3.75 h
Pons [5] = test: Drug uptake in anesthetized cynomolgus monkey brain pons after 65 mins postinjection; type: ADME, organism-based, Macaca fascicularis; conditions: in vivo
Medulla [6] = test: Drug uptake in anesthetized cynomolgus monkey brain medulla after 2.5 mins postinjection; type: ADME, organism-based, Macaca fascicularis; conditions: in vivo
[7] = Ratio of drug uptake in medulla to cerebellum in anesthetized cynomolgus monkey after 18.5 mins postinjection; type: ADME, organism-based, Macaca fascicularis; conditions: in vivo
[8] = Drug uptake in anesthetized cynomolgus monkey brain occipital lobe after 215 mins postinjection; type: ADME, organism-based, Macaca fascicularis; conditions: in vivo
Caudate [9] = test: Drug uptake in anesthetized cynomolgus monkey brain caudate after 95 mins postinjection; type: ADME, organism-based, Macaca fascicularis, Caudate nucleus; conditions: in vivo
Caudate [10] = test: Drug uptake in anesthetized cynomolgus monkey brain caudate after 75 mins postinjection; type: ADME, organism-based, Macaca fascicularis, Caudate nucleus; conditions: in vivo, 1.25 h
[11] = Ratio of drug uptake in frontal lobe to cerebellum in anesthetized cynomolgus monkey after 135 mins postinjection; type: ADME, organism-based, Macaca fascicularis; conditions: in vivo, 2.25 h
[12] = Drug uptake in anesthetized cynomolgus monkey brain frontal lobe after 12.5 mins postinjection; type: ADME, organism-based, Macaca fascicularis; conditions: in vivo
Putamen [13] = test: Drug uptake in anesthetized cynomolgus monkey brain putamen after 65 mins postinjection; type: ADME, organism-based, Macaca fascicularis; design: unit not given here; conditions: in vivo
Caudate [14] = test: Drug uptake in anesthetized cynomolgus monkey brain caudate after 45 mins postinjection; type: ADME, organism-based, Macaca fascicularis, Caudate nucleus; conditions: in vivo, 0.75 h
[15] = Ratio of drug uptake in occipital lobe to cerebellum in anesthetized cynomolgus monkey after 12.5 mins postinjection; type: ADME, organism-based, Macaca fascicularis; conditions: in vivo
[16] = Ratio of drug uptake in putamen to cerebellum in anesthetized cynomolgus monkey after 75 mins postinjection; type: ADME, organism-based, Macaca fascicularis; conditions: in vivo, 1.25 h
[17] = Ratio of drug uptake in caudate to cerebellum in anesthetized cynomolgus monkey after 65 mins postinjection; type: ADME, organism-based, Macaca fascicularis; conditions: in vivo
Caudate [18] = test: Drug uptake in anesthetized cynomolgus monkey brain caudate after 18.5 mins postinjection; type: ADME, organism-based, Macaca fascicularis, Caudate nucleus; conditions: in vivo
Thalamus [19] = test: Drug uptake in anesthetized cynomolgus monkey brain thalamus after 9.5 mins postinjection; type: ADME, organism-based, Macaca fascicularis; design: unit not given here; conditions: in vivo
[20] = Drug uptake in anesthetized cynomolgus monkey brain frontal lobe after 75 mins postinjection; type: ADME, organism-based, Macaca fascicularis; conditions: in vivo, 1.25 h
Putamen [21] = test: Drug uptake in anesthetized cynomolgus monkey brain putamen after 27.5 mins postinjection; type: ADME, organism-based, Macaca fascicularis; design: unit not given here; conditions: in vivo
[22] = Ratio of drug uptake in frontal lobe to cerebellum in anesthetized cynomolgus monkey after 195 mins postinjection; type: ADME, organism-based, Macaca fascicularis; conditions: in vivo, 3.25 h
Caudate [23] = test: Drug uptake in anesthetized cynomolgus monkey brain caudate after 12.5 mins postinjection; type: ADME, organism-based, Macaca fascicularis, Caudate nucleus; conditions: in vivo
[24] = Drug uptake in anesthetized cynomolgus monkey brain frontal lobe after 95 mins postinjection; type: ADME, organism-based, Macaca fascicularis; conditions: in vivo
[25] = Drug uptake in anesthetized cynomolgus monkey brain cerebellum after 135 mins postinjection; type: ADME, organism-based, Macaca fascicularis; conditions: in vivo, 2.25 h
[26] = Drug uptake in anesthetized cynomolgus monkey brain occipital lobe after 225 mins postinjection; type: ADME, organism-based, Macaca fascicularis; conditions: in vivo, 3.75 h
Caudate [27] = test: Drug uptake in anesthetized cynomolgus monkey brain caudate after 55 mins postinjection; type: ADME, organism-based, Macaca fascicularis, Caudate nucleus; conditions: in vivo
Thalamus [28] = test: Drug uptake in anesthetized cynomolgus monkey brain thalamus after 22.5 mins postinjection; type: ADME, organism-based, Macaca fascicularis; design: unit not given here; conditions: in vivo, 0.375 h
[29] = Drug uptake in anesthetized cynomolgus monkey brain cerebellum after 6.5 mins postinjection; type: ADME, organism-based, Macaca fascicularis; conditions: in vivo
[30] = Drug uptake in anesthetized cynomolgus monkey brain cerebellum after 215 mins postinjection; type: ADME, organism-based, Macaca fascicularis; conditions: in vivo
[31] = Ratio of drug uptake in pons to cerebellum in anesthetized cynomolgus monkey after 1.5 mins postinjection; type: ADME, organism-based, Macaca fascicularis; conditions: in vivo, 0.025 h
Medulla [32] = test: Drug uptake in anesthetized cynomolgus monkey brain medulla after 95 mins postinjection; type: ADME, organism-based, Macaca fascicularis; conditions: in vivo
Caudate [33] = test: Drug uptake in anesthetized cynomolgus monkey brain caudate after 22.5 mins postinjection; type: ADME, organism-based, Macaca fascicularis, Caudate nucleus; conditions: in vivo, 0.375 h
Pons [34] = test: Drug uptake in anesthetized cynomolgus monkey brain pons after 85 mins postinjection; type: ADME, organism-based, Macaca fascicularis; conditions: in vivo
[35] = Drug uptake in anesthetized cynomolgus monkey brain frontal lobe after 0.5 mins postinjection; type: ADME, organism-based, Macaca fascicularis; conditions: in vivo
[36] = Ratio of drug uptake in midbrain to cerebellum in anesthetized cynomolgus monkey after 95 mins postinjection; type: ADME, organism-based, Macaca fascicularis; conditions: in vivo
[37] = Ratio of drug uptake in caudate to cerebellum in anesthetized cynomolgus monkey after 9.5 mins postinjection; type: ADME, organism-based, Macaca fascicularis; conditions: in vivo
Midbrain [38] = test: Drug uptake in anesthetized cynomolgus monkey brain midbrain after 175 mins postinjection; type: ADME, organism-based, Macaca fascicularis; conditions: in vivo
[39] = Ratio of drug uptake in caudate to cerebellum in anesthetized cynomolgus monkey after 95 mins postinjection; type: ADME, organism-based, Macaca fascicularis; conditions: in vivo
Caudate [40] = test: Drug uptake in anesthetized cynomolgus monkey brain caudate after 125 mins postinjection; type: ADME, organism-based, Macaca fascicularis, Caudate nucleus; conditions: in vivo
Midbrain [41] = test: Drug uptake in anesthetized cynomolgus monkey brain midbrain after 27.5 mins postinjection; type: ADME, organism-based, Macaca fascicularis; design: unit not given here; conditions: in vivo
[42] = Drug uptake in anesthetized cynomolgus monkey brain occipital lobe after 27.5 mins postinjection; type: ADME, organism-based, Macaca fascicularis; conditions: in vivo
Caudate [43] = test: Drug uptake in anesthetized cynomolgus monkey brain caudate after 65 mins postinjection; type: ADME, organism-based, Macaca fascicularis, Caudate nucleus; conditions: in vivo
[44] = Ratio of drug uptake in thalamus to cerebellum in anesthetized cynomolgus monkey after 95 mins postinjection; type: ADME, organism-based, Macaca fascicularis; conditions: in vivo
[45] = Drug uptake in anesthetized cynomolgus monkey brain cerebellum after 9.5 mins postinjection; type: ADME, organism-based, Macaca fascicularis; conditions: in vivo
Midbrain [46] = test: Drug uptake in anesthetized cynomolgus monkey brain midbrain after 195 mins postinjection; type: ADME, organism-based, Macaca fascicularis; conditions: in vivo, 3.25 h
[47] = Drug uptake in anesthetized cynomolgus monkey brain frontal lobe after 115 mins postinjection; type: ADME, organism-based, Macaca fascicularis; conditions: in vivo
[48] = Drug uptake in anesthetized cynomolgus monkey brain occipital lobe after 75 mins postinjection; type: ADME, organism-based, Macaca fascicularis; conditions: in vivo, 1.25 h
Pons [49] = test: Drug uptake in anesthetized cynomolgus monkey brain pons after 95 mins postinjection; type: ADME, organism-based, Macaca fascicularis; conditions: in vivo
[50] = Ratio of drug uptake in medulla to cerebellum in anesthetized cynomolgus monkey after 165 mins postinjection; type: ADME, organism-based, Macaca fascicularis; conditions: in vivo, 2.75 h
[51] = Ratio of drug uptake in pons to cerebellum in anesthetized cynomolgus monkey after 0.5 mins postinjection; type: ADME, organism-based, Macaca fascicularis; conditions: in vivo
Medulla [52] = test: Drug uptake in anesthetized cynomolgus monkey brain medulla after 165 mins postinjection; type: ADME, organism-based, Macaca fascicularis; conditions: in vivo, 2.75 h
[53] = Ratio of drug uptake in occipital lobe to cerebellum in anesthetized cynomolgus monkey after 105 mins postinjection; type: ADME, organism-based, Macaca fascicularis; conditions: in vivo, 1.75 h
[54] = Drug uptake in anesthetized cynomolgus monkey brain cerebellum after 165 mins postinjection; type: ADME, organism-based, Macaca fascicularis; conditions: in vivo, 2.75 h
[55] = Ratio of drug uptake in midbrain to cerebellum in anesthetized cynomolgus monkey after 135 mins postinjection; type: ADME, organism-based, Macaca fascicularis; conditions: in vivo, 2.25 h
Midbrain [56] = test: Drug uptake in anesthetized cynomolgus monkey brain midbrain after 1.5 mins postinjection; type: ADME, organism-based, Macaca fascicularis; design: unit not given here; conditions: in vivo, 0.025 h
[57] = Drug uptake in anesthetized cynomolgus monkey brain cerebellum after 45 mins postinjection; type: ADME, organism-based, Macaca fascicularis; conditions: in vivo, 0.75 h
[58] = Drug uptake in anesthetized cynomolgus monkey brain cerebellum after 35 mins postinjection; type: ADME, organism-based, Macaca fascicularis; conditions: in vivo
Thalamus [59] = test: Drug uptake in anesthetized cynomolgus monkey brain thalamus after 225 mins postinjection; type: ADME, organism-based, Macaca fascicularis; design: unit not given here; conditions: in vivo, 3.75 h
Pons [60] = test: Drug uptake in anesthetized cynomolgus monkey brain pons after 75 mins postinjection; type: ADME, organism-based, Macaca fascicularis; conditions: in vivo, 1.25 h
[61] = Ratio of drug uptake in frontal lobe to cerebellum in anesthetized cynomolgus monkey after 205 mins postinjection; type: ADME, organism-based, Macaca fascicularis; conditions: in vivo
[62] = Drug uptake in anesthetized cynomolgus monkey brain frontal lobe after 105 mins postinjection; type: ADME, organism-based, Macaca fascicularis; conditions: in vivo, 1.75 h
Medulla [63] = test: Drug uptake in anesthetized cynomolgus monkey brain medulla after 12.5 mins postinjection; type: ADME, organism-based, Macaca fascicularis; conditions: in vivo
Putamen [64] = test: Drug uptake in anesthetized cynomolgus monkey brain putamen after 2.5 mins postinjection; type: ADME, organism-based, Macaca fascicularis; conditions: in vivo
Medulla [65] = test: Drug uptake in anesthetized cynomolgus monkey brain medulla after 115 mins postinjection; type: ADME, organism-based, Macaca fascicularis; conditions: in vivo
[66] = Ratio of drug uptake in medulla to cerebellum in anesthetized cynomolgus monkey after 0.5 mins postinjection; type: ADME, organism-based, Macaca fascicularis; conditions: in vivo
[67] = Drug uptake in anesthetized cynomolgus monkey brain frontal lobe after 18.5 mins postinjection; type: ADME, organism-based, Macaca fascicularis; conditions: in vivo
[68] = Drug uptake in anesthetized cynomolgus monkey brain occipital lobe after 2.5 mins postinjection; type: ADME, organism-based, Macaca fascicularis; conditions: in vivo

O=C(OCCC[18F])C1C2CCC(CC1c1cccc(/C=C\I)c1)N2 (stereo not drawn)
Drug uptake [1]: 4 | Drug uptake (Midbrain [2]): 4.97 | Drug uptake (Thalamus [3]): 4.44 | Drug uptake (Medulla [4]): 3.6 | Drug uptake (Pons [5]): 4.54 | Drug uptake (Medulla [6]): 0.84 | Ratio [7]: 1 | Drug uptake [8]: 2.08 | Drug uptake (Caudate [9]): 3.82 | Drug uptake (Caudate [10]): 4.05 | Ratio [11]: 0.9 | Drug uptake [12]: 2.24 | Drug uptake (Putamen [13]): 4.95 | Drug uptake (Caudate [14]): 4.05 | Ratio [15]: 0.8 | Ratio [16]: 1.3 | Ratio [17]: 1 | Drug uptake (Caudate [18]): 3.38 | Drug uptake (Thalamus [19]): 3.45 | Drug uptake [20]: 2.76 | Drug uptake (Putamen [21]): 4.9 | Ratio [22]: 0.9 | Drug uptake (Caudate [23]): 3 | Drug uptake [24]: 2.68 | Drug uptake [25]: 2.66 | Drug uptake [26]: 2.09 | Drug uptake (Caudate [27]): 4.09 | Drug uptake (Thalamus [28]): 4.46 | Drug uptake [29]: 3.91 | Drug uptake [30]: 2.06 | Ratio [31]: 0.8 | Drug uptake (Medulla [32]): 4.93 | Drug uptake (Caudate [33]): 3.53 | Drug uptake (Pons [34]): 4.12 | Drug uptake [35]: 0 | Ratio [36]: 1.4 | Ratio [37]: 0.6 | Drug uptake (Midbrain [38]): 4.1 | Ratio [39]: 1.1 | Drug uptake (Caudate [40]): 3.51 | Drug uptake (Midbrain [41]): 5.04 | Drug uptake [42]: 4 | Drug uptake (Caudate [43]): 3.99 | Ratio [44]: 1.3 | Drug uptake [45]: 4.24 | Drug uptake (Midbrain [46]): 3.85 | Drug uptake [47]: 2.56 | Drug uptake [48]: 3.68 | Drug uptake (Pons [49]): 4.41 | Ratio [50]: 1.9 | Ratio [51]: 1.7 | Drug uptake (Medulla [52]): 4.45 | Ratio [53]: 1 | Drug uptake [54]: 2.37 | Ratio [55]: 1.7 | Drug uptake (Midbrain [56]): 0.32 | Drug uptake [57]: 4.48 | Drug uptake [58]: 4.74 | Drug uptake (Thalamus [59]): 2.83 | Drug uptake (Pons [60]): 4.34 | Ratio [61]: 1 | Drug uptake [62]: 2.58 | Drug uptake (Medulla [63]): 4.73 | Drug uptake (Putamen [64]): 0.84 | Drug uptake (Medulla [65]): 4.59 | Ratio [66]: 1.5 | Drug uptake [67]: 2.5 | Drug uptake [68]: 0.62
